Experimental data reported in patent US20230257372A1 (CHONG KUN DANG PHARMACEUTICAL CORP., priority 2020, published 2023).
Like-named read-outs stand apart in the source and are kept apart here.

What was measured:
human recombinant HDAC6 = target: T1, human recombinant HDAC6 (Homo sapiens, UniProt Q9UBN7); experiment: HDAC6 enzyme activity inhibition (HDAC Fluorimetric Drug Discovery Kit); type: biochemical
T1 construct: purchased Calbiochem Inc. 382180
T1 sequence (Q9UBN7 1-1215): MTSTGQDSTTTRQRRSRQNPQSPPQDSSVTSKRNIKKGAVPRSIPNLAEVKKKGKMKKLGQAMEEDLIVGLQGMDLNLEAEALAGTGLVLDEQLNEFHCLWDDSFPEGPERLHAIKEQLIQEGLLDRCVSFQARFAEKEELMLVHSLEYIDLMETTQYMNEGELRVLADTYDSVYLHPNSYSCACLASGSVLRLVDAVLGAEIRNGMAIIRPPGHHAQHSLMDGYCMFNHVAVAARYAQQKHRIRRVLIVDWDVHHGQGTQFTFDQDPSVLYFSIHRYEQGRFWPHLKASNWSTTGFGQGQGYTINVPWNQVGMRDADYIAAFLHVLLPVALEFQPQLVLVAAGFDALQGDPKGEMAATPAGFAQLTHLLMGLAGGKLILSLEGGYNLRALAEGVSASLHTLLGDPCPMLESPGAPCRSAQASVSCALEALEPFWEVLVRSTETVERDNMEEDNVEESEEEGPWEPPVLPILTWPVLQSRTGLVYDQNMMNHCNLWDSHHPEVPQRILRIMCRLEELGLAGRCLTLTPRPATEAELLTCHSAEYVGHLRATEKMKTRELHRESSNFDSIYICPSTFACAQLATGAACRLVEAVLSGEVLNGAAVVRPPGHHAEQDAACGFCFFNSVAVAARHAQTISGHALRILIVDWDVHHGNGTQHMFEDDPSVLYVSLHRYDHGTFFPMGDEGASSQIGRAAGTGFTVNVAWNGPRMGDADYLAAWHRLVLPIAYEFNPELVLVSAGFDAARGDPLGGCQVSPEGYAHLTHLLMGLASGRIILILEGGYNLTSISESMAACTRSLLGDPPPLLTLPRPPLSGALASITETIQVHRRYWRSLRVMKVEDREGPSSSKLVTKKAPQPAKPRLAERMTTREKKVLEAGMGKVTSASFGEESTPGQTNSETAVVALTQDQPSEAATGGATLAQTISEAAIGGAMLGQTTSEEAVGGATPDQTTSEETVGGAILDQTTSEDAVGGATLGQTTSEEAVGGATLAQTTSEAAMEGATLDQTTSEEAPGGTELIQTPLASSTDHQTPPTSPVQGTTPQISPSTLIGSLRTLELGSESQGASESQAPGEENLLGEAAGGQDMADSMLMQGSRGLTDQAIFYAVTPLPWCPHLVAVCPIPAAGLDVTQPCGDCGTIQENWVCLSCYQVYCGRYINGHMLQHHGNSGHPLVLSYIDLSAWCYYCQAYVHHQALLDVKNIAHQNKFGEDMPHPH
Experimental: (§1) An experiment was conducted to identify the selectivity of the compound represented by formula I of the present invention to HDAC6 through an experiment on HDAC1 and HDAC6 enzyme activity inhibition.
(§2) A 5-fold dilution of the compound was divided into a 96-well plate, after which […] of the enzyme and 10 μM of the substrate were inserted into each well and subjected to reaction at 30° C. for 60 minutes, such that Fluor de Lys® Developer II (BML-KI176) was inserted thereinto and subjected to reaction for 30 minutes and finished.

human recombinant HDAC1 = target: T2, human recombinant HDAC1 (Homo sapiens, UniProt Q13547); experiment: HDAC1 enzyme activity inhibition (HDAC Fluorimetric Drug Discovery Kit); type: biochemical; details: read-out: HDAC1
T2 construct: purchased Enzo Life Science, Inc. BML-SE456
T2 sequence (Q13547 whole entry): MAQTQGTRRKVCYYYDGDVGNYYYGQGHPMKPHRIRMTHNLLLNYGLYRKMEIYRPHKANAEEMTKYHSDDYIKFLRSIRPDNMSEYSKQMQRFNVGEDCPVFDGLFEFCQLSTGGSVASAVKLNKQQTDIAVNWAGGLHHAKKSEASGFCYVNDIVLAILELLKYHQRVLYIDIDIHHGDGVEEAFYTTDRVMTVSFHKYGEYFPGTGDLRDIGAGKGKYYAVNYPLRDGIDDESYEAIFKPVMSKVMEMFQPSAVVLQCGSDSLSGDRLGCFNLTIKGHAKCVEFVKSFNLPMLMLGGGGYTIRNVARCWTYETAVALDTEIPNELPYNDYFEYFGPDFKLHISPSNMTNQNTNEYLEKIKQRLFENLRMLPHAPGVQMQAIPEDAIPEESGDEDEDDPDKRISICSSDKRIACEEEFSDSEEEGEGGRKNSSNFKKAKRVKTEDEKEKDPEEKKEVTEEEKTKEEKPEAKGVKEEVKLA
Experimental: as §1, §2

[1] = human recombinant HDAC6, same protocol as HDAC1
[2] = human recombinant HDAC1, Fluor de Lys substrate, 30° C. 60 minutes
[3] = human recombinant HDAC6, IC50 calculated with GraphPad Prism
[4] = human recombinant HDAC1, IC50 calculated with GraphPad Prism

Row | Structure (SMILES) | IC50 (human recombinant HDAC1; [2]) [nM] | HDAC6 selectivity (fold) (human recombinant HDAC6; HDAC1 IC50 / HDAC6 IC50) | IC50 (human recombinant HDAC6; [3]) [nM] | IC50 (human recombinant HDAC1; [4]) [nM] | also measured
1 | CN1CCN(c2cccc(-c3cn(Cc4ncc(-c5nnc(C(F)F)o5)cc4F)nn3)c2)CC1 [Compound 18924, 2-(difluoromethyl)-5-(5-fluoro-6-((4-(3-(4-methylpiperazin-1-yl)phenyl)-1H-1,2,3-triazol-1-yl)methyl)pyridin-3-yl)-1,3,4-oxadiazole] | > 50000 |  |  |  | HDAC6 selectivity (fold) (human recombinant HDAC6; HDAC6 over HDAC1): 625 fold; IC50 (human recombinant HDAC6; [1]): 80 nM
2 | FC(F)c1nnc(-c2ccc(Cn3cc(-c4cccc5c4CN(C4CCC4)C5)nn3)cc2)o1 [Compound 4532, 2-(4-((4-(2-cyclobutylisoindolin-4-yl)-1H-1,2,3-triazol-1-yl)methyl)phenyl)-5-(difluoromethyl)-1,3,4-oxadiazole] | > 50000 |  |  |  | HDAC6 selectivity (fold) (human recombinant HDAC6; HDAC6 over HDAC1): 327 fold; IC50 (human recombinant HDAC6; [1]): 153 nM
3 | O=c1[nH]cccc1-c1cn(Cc2ccc(-c3nnc(C(F)F)o3)cn2)nn1 [Compound 3844, 3-(1-((5-(5-(difluoromethyl)-1,3,4-oxadiazol-2-yl)pyridin-2-yl)methyl)-1H-1,2,3-triazol-4-yl)pyridin-2(1H)-one] |  | 2415 | 20.7 | > 50000 | 
4 | FC(F)c1nnc(-c2ccc(Cn3cc(-c4cccc5[nH]cc(CN6CCOCC6)c45)nn3)nc2)o1 [Compound 4023, 4-((4-(1-((5-(5-(difluoromethyl)-1,3,4-oxadiazol-2-yl)pyridin-2-yl)methyl)-1H-1,2,3-triazol-4-yl)-1H-indol-3-yl)methyl)morpholine] |  | 32 | 1560 | > 50000 | 
5 | CC(=O)N1CCCC(c2cn(Cc3ccc(-c4nnc(C(F)F)o4)cn3)nn2)C1 (centres unmarked) [Compound 4004, 1-(3-(1-((5-(5-(difluoromethyl)-1,3,4-oxadiazol-2-yl)pyridin-2-yl)methyl)-1H-1,2,3-triazol-4-yl)piperidin-1-yl)ethan-1-one] |  | 150 | 332 | > 50000 | 
6 | FC(F)c1nnc(-c2ccc(Cn3cc(-c4cccc(C5CN(C6CCC6)C5)c4)nn3)nc2)o1 [Compound 4504, 2-(6-((4-(3-(1-cyclobutylazetidin-3-yl)phenyl)-1H-1,2,3-triazol-1-yl)methyl)pyridin-3-yl)-5-(difluoromethyl)-1,3,4-oxadiazole] | > 50000 |  |  |  | HDAC6 selectivity (fold) (human recombinant HDAC6; HDAC6 over HDAC1): 3703 fold; IC50 (human recombinant HDAC6; [1]): 13.5 nM
7 | FC(F)c1nnc(-c2ccc(Cn3cc(-c4ccc(Cl)nc4)nn3)nc2)o1 [Compound 3882, 2-(6-((4-(6-chloropyridin-3-yl)-1H-1,2,3-triazol-1-yl)methyl)pyridin-3-yl)-5-(difluoromethyl)-1,3,4-oxadiazole] |  | 988 | 50.6 | > 50000 | 
8 | FC(F)c1nnc(-c2ccc(Cn3cc(-c4cc(C(F)(F)F)cc(C(F)(F)F)c4)nn3)cc2)o1 [Compound 3695, 2-(4-((4-(3,5-bis(trifluoromethyl)phenyl)-1H-1,2,3-triazol-1-yl)methyl)phenyl)-5-(difluoromethyl)-1,3,4-oxadiazole] |  | 42 | 1190 | > 50000 | 
9 | CN1CCC(c2cn(Cc3ccc(-c4nnc(C(F)F)o4)cn3)nn2)CC1 [Compound 3806, 2-(difluoromethyl)-5-(6-((4-(1-methylpiperidin-4-yl)-1H-1,2,3-triazol-1-yl)methyl)pyridin-3-yl)-1,3,4-oxadiazole] |  | 134 | 372 | > 50000 | 
10 | FC(F)c1nnc(-c2ccc(Cn3cc(-c4cn[nH]c4)nn3)nc2)o1 [Compound 3985, 2-(6-((4-(1H-pyrazol-4-yl)-1H-1,2,3-triazol-1-yl)methyl)pyridin-3-yl)-5-(difluoromethyl)-1,3,4-oxadiazole] |  |  |  | > 50000 | 
11 | CCN1CCC(c2cccc(-c3cn(Cc4ccc(-c5nnc(C(F)F)o5)cn4)nn3)c2)CC1 [Compound 4011, 2-(difluoromethyl)-5-(6-((4-(3-(1-ethylpiperidin-4-yl)phenyl)-1H-1,2,3-triazol-1-yl)methyl)pyridin-3-yl)-1,3,4-oxadiazole] |  |  |  | > 50000 | 

More lines, main results first:

Row | IC50 (human recombinant HDAC1; [2]) [nM] | HDAC6 selectivity (fold) (human recombinant HDAC6; HDAC1 IC50 / HDAC6 IC50) | IC50 (human recombinant HDAC6; [3]) [nM] | IC50 (human recombinant HDAC1; [4]) [nM] | Structure (SMILES) | also measured
12 |  | 747 | 66.9 | > 50000 | CN1C[C@@H]2C[C@H]1CN2c1cc(-c2cn(Cc3ccc(-c4nnc(C(F)F)o4)cc3)nn2)ccc1F [Compound 4429, 2-(difluoromethyl)-5-(4-((4-(4-fluoro-3-((1S,4S)-5-methyl-2,5-diazabicyclo[2.2.1]heptan-2-yl)phenyl)-1H-1,2,3-triazol-1-yl)methyl)phenyl)-1,3,4-oxadiazole] | 
13 | > 50000 |  |  |  | CN(C)Cc1ccc(-c2cn(Cc3ncc(-c4nnc(C(F)F)o4)cc3F)nn2)c(Cl)c1 [Compound 19098, 1-(3-chloro-4-(1-((5-(5-(difluoromethyl)-1,3,4-oxadiazol-2-yl)-3-fluoropyridin-2-yl)methyl)-1H-1,2,3-triazol-4-yl)phenyl)-N,N-dimethylmethanamine] | HDAC6 selectivity (fold) (human recombinant HDAC6; HDAC6 over HDAC1): 1315 fold; IC50 (human recombinant HDAC6; [1]): 38 nM
14 | > 50000 |  |  |  | OCc1ccc(-c2cn(Cc3ccc(-c4nnc(C(F)F)o4)cc3F)nn2)s1 [Compound 17922] | HDAC6 selectivity (fold) (human recombinant HDAC6; HDAC6 over HDAC1): 512 fold; IC50 (human recombinant HDAC6; [1]): 97.6 nM
15 |  |  |  | > 50000 | Fc1ccc(-c2cn(Cc3ccc(-c4nnc(C(F)F)o4)cc3)nn2)cc1F [Compound 3661, 2-(difluoromethyl)-5-(4-((4-(3,4-difluorophenyl)-1H-1,2,3-triazol-1-yl)methyl)phenyl)-1,3,4-oxadiazole] | 
16 | > 50000 |  |  |  | CN(C)Cc1ccc(-c2cn(Cc3ccc(-c4nnc(C(F)F)o4)cc3F)nn2)s1 [Compound 17914, 1-(5-(1-(4-(5-(difluoromethyl)-1,3,4-oxadiazol-2-yl)-2-fluorobenzyl)-1H-1,2,3-triazol-4-yl)thiophen-2-yl)-N,N-dimethylmethanamine] | 
17 | > 50000 |  |  |  | Fc1cc(-c2nnc(C(F)F)o2)ccc1Cn1cc(-c2ccn3ccnc3c2)nn1 [Compound 17198, 2-(difluoromethyl)-5-(3-fluoro-4-((4-(imidazo[1,2-a]pyridin-7-yl)-1H-1,2,3-triazol-1-yl)methyl)phenyl)-1,3,4-oxadiazole] | 
18 | > 50000 |  |  |  | CN1CC(c2ccc(-c3cn(Cc4ccc(-c5nnc(C(F)F)o5)cc4F)nn3)cc2)C1 [Compound 17698] | 
19 | > 50000 |  |  |  | CC(C)N1Cc2ccc(-c3cn(Cc4ccc(-c5nnc(C(F)F)o5)cc4F)nn3)cc2C1 [Compound 4517, 2-(difluoromethyl)-5-(3-fluoro-4-((4-(2-isopropylisoindolin-5-yl)-1H-1,2,3-triazol-1-yl)methyl)phenyl)-1,3,4-oxadiazole] | 
20 | > 50000 |  |  |  | CN1CCN(c2cc(-c3cn(Cc4ccc(-c5nnc(C(F)F)o5)cc4F)nn3)ccn2)CC1 [Compound 4633, 2-(difluoromethyl)-5-(3-fluoro-4-((4-(2-(4-methylpiperazin-1-yl)pyridin-4-yl)-1H-1,2,3-triazol-1-yl)methyl)phenyl)-1,3,4-oxadiazole] | 
21 |  |  |  | > 50000 | FC(F)c1nnc(-c2ccc(Cn3cc(-c4ccc5[nH]ncc5c4)nn3)cc2)o1 [Compound 4344, 2-(4-((4-(1H-indazol-5-yl)-1H-1,2,3-triazol-1-yl)methyl)phenyl)-5-(difluoromethyl)-1,3,4-oxadiazole] | 
22 | > 50000 |  |  |  | CN(C)Cc1ccc(-c2cn(Cc3ccc(-c4nnc(C(F)F)o4)cc3F)nn2)cc1 [Compound 4522, 1-(4-(1-(4-(5-(difluoromethyl)-1,3,4-oxadiazol-2-yl)-2-fluorobenzyl)-1H-1,2,3-triazol-4-yl)phenyl)-N,N-dimethylmethanamine] | 
23 |  |  |  | > 50000 | CC(C)(F)C(=O)Nc1cccc(-c2cn(Cc3ccc(-c4nnc(C(F)F)o4)cc3F)nn2)c1 [Compound 4334] | 
